Where a name gives a salt, the structure may show the parent alone. Read-outs that look alike come from different tables or passages of the source. A value given as a limit tells only on which side of the number the result lay.

Experimental findings from patent publication US20250019369A1, “N-(4-aminocyclohexyl)pyrimidine-4-carboxamide derivatives as CD38 inhibitors” (Cerevance, Inc., priority 2021, published 2025) are described below.

Data set [1] in a line: Tissue binding assay, brain homogenate (equilibrium dialysis). The data set is classed as in vitro ADME. The settings on record: dialysis 4 hours at 37° C., dilution factor 4. The method, then:
(§1) Buffer preparation. A basic solution was prepared by dissolving 14.2 g/L Na2HPO4 and 8.77 g/L NaCl in deionized H2O. An acidic solution was prepared by dissolving 15.6 g/L NaH2PO4·2H2O and 8.77 g/L NaCl in deionized H2O. Using the acidic solution, the basic solution was then titrated to pH 7.4±0.1 and stored at 4° C. for up to 1 month. The stop solution was 100% CH3CN containing 200 ng/mL tolbutamide, 200 ng/mL labetalol and 50 ng/mL metformin.
(§2) Test method. Dialysis membrane strips were soaked in ultra-pure water at room temperature for ˜1 hour. Each membrane strip containing 2 membranes was separated and soaked in 20:80 EtOH/H2O (v/v) for ˜20 min, after which they were ready for use or were stored in the solution at 2-8° C. for up to 1 month. Prior to the experiment, the membrane was rinsed and soaked for 20 min in ultra-pure water. On the day of experiment, brain homogenate was thawed in a water bath at room temperature and incubated at 37° C. for 10 min before use. Test and control compounds were dissolved in DMSO to achieve 10 mM stock solutions. DMSO working solutions were prepared at 400 μM by diluting 10 μL of stock solution. To prepare the time zero (t=0) samples to be used for recovery determination, 50 μL aliquots of loading matrix were transferred in triplicate to the sample collection plate. The samples were immediately matched with opposite blank buffer to obtain a final volume of 100 μL of 1:1 matrix/dialysis buffer (v/v) in each well. 500 μL of stop solution were added to these t=0 samples. They were then stored at 2-8° C. pending further processes along with other post-dialysis samples. To load the dialysis device, an aliquot of 150 μL of the loading matrix was transferred to the donor side of each dialysis well in triplicate, and 150 μL of the dialysis buffer was loaded to the receiver side of the well. The dialysis plate was placed in a humidified incubator at 37° C. with 5% CO2 on a shaking platform that rotated slowly (about 100 rpm) for 4 hours. At the end of the dialysis, aliquots of 50 μL of samples were taken from both the buffer side and the matrix side of the dialysis device. These samples were transferred into new 96-well plates. Each sample was mixed with an equal volume of opposite blank matrix (buffer or matrix) to reach a final volume of 100 μL of 1:1 matrix/dialysis buffer (v/v) in each well. All samples were further processed by adding 500 μL of stop solution containing internal standards. The mixture was vortexed and centrifuged at 4000 rpm for about 20 min. An aliquot of 100 μL of supernatant of all the samples was then removed for LC-MS/MS analysis. The single blank samples were prepared by transferring 50 μL of blank matrix to a 96-well plate and adding 50 μL of blank PBS buffer to each well. Then the matrix-matched samples were further processed by adding 500 μL of stop solution containing internal standards, following the same sample processing method as the dialysis samples.
(§3) Data analysis. The % undiluted unbound, % undiluted bound and % recovery were calculated using the following equations:
(§4) % Undiluted Unbound=100*1/D/((1/(F/T)−1)+1/D)
(§5) % Undiluted Bound=100−% Undiluted Unbound
(§6) where F is the analyte concentration or peak area ratio of analyte/internal standard on the buffer (receiver) side of the membrane; T is the analyte concentration or peak area ratio of analyte/internal standard on the matrix (donor) side of the membrane; To is the analyte concentration or the peak area ratio of analyte/internal standard in the loading matrix sample at time zero; and D is the dilution factor determined as 4 in this assay.
(In general: In equilibrium dialysis free small molecules cross a membrane that holds back macromolecules.)

The nature of data set [2]: Tissue binding assay, plasma (equilibrium dialysis). The data set is classed as in vitro ADME. The settings on record: dialysis 4 hours at 37° C. The method, then: [The source words this procedure for another target and reports this target under the same test.] as §1, §2, §3, §4, §5, §6
Data set [3] can be described thus: PK brain permeability in C57BL/6 mice after single oral gavage. The settings on record: male, C57BL/6, mouse, 2 hours post dose; for concentration at 2 h: po, 10 mg/kg; for Kpu,u (unbound brain/plasma partition coefficient) at 2 h: oral 10 mg/kg, read-out: Kpu,u (unbound partitioning coefficient, Cb,u/Cp,u). The data set is classed as in vivo. The method, then: The distribution of compounds into the brain in vivo was determined in C57BL/6 mice following single oral (po) gavage administration.
Test compounds were formulated at 1 mg/mL in 0.5% HPMC E4 M, 0.2% Tween 80 in water to achieve solutions or homogenous suspensions suitable for po administration.
Formulations were administered to 3 male C57BL/6 mice at a volume of 10 mL/kg resulting in a dose level of 10 mg/kg. Blood samples were collected at 1 and 2 hours post dose into tubes containing K2EDTA as anticoagulant, processed to plasma and stored at −60° C. or lower until LC-MS/MS analysis. Brains were harvested 2 hours post dose, rinsed with saline, dried, weighed and homogenised under ice cold conditions. Brain homogenates were stored at −60° C. or lower until LC-MS/MS analysis.
Dose formulation concentrations were verified using a LC-UV or LC-MS/MS method. Test compound concentrations in plasma and brain homogenate were quantitatively determined using LC-MS/MS methods developed in individual matrices against calibration curves with QC samples included and acceptance criteria as per CRO SOPs. Concentrations in brain homogenate were corrected for the dilution factor used to prepare the homogenate to give concentrations in whole brain tissue.
Plasma and brain concentration versus time data were reported and plotted in excel. The brain to plasma ratio at 2 hours post dose was calculated for each animal using the following equation:
Brain:plasma=brain concentration (ng/g) at 2 h/plasma concentration (ng/mL) at 2 h
As only unbound test compound is available to exert an effect on the target, unbound plasma (Cp,u) and unbound brain (Cb,u) concentrations were calculated by correcting the total concentrations for the unbound fraction in plasma (fu,p) or brain (fu,b) determined from in vitro plasma protein or brain tissue binding assays using the following equations: […]
The unbound partitioning coefficient (Kpu,u) was then calculated based on the ratio of Cb,u to Cp,u using the following equation: […]
In these studies, mice were orally administrated a 10 mg/kg dose and sacrificed 2 hours post dose and tissue samples (brain homogenate and plasma) were analyzed subsequently as described above.

In data set [4] the target is Recombinant human CD38 (Homo sapiens (Human), UniProt P28907). Briefly: Human CD38 hydrolase assay (fluorescence, ε-NAD substrate). The data set is classed as biochemical. The settings on record: recombinant human CD38 0.8 nM, 4 μM ε-NAD, 30 min preincubation at 25° C., pH 7.4. As to the method: (§7) The ability of test compounds to inhibit human CD38 hydrolase activity was measured in a fluorescence-based assay using non-physiological NAD^+ substrate analogue 1,N^6-etheno NAD^+ (ε-NAD). Recombinant human CD38 (0.8 nM) was preincubated with test compounds in 384-well black microplates for 30 min at 25° C. in PBS (—Ca^2+/Mg^2+) containing 0.005% BSA (pH 7.4). CD38 hydrolase activity was initiated by addition of 4 μM ε-NAD, which yields the fluorescent product 1,N^6-etheno ADP-ribose. Formation of fluorescent product was followed using ClarioStar Plus (BMG) microplate reader by reading fluorescence (excitation λ=300 nm; emission λ=410 nm) at two time points, one immediately after substrate addition (t=0) and one at 10 min (t=10).
Sequence of Recombinant human CD38 (P28907 whole entry): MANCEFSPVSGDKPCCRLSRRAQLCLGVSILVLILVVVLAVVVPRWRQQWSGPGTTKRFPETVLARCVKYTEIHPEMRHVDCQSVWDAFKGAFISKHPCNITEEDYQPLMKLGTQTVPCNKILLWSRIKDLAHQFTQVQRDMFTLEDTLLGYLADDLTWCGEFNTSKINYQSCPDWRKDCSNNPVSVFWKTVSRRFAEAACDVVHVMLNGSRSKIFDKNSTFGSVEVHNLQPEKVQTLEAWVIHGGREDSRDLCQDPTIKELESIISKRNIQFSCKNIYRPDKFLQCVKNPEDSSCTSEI
Data was analysed by subtracting the values detected at t=0 from t=10 to correct for variation in baseline fluorescence. Fluorescence values were converted to percent inhibition using the average of high signal (CD38 and ε-NAD) and low signal (CD38 and ε-NAD in the presence of a tool CD38 inhibitor) control wells. IC50 values were determined from a 10-point, half log concentration response curve with a four-parameter logistic equation.

The target in data set [5] is Recombinant mouse CD38 (Mus musculus (Mouse), UniProt P56528). Briefly: Mouse CD38 hydrolase assay (fluorescence, ε-NAD substrate). Format: biochemical. To be noted: recombinant mouse CD38 0.4 nM, 12 μM ε-NAD, 30 min preincubation at 25° C., pH 7.4. As to the method: as §7, with “inhibit mouse” for “inhibit human”, “Recombinant mouse” for “Recombinant human”, “CD38 (0.4” for “CD38 (0.8”, “of 12” for “of 4”, “at 6” for “at 10”, “min (t=6).” for “min (t=10).”
Sequence of Recombinant mouse CD38 (P56528 whole entry): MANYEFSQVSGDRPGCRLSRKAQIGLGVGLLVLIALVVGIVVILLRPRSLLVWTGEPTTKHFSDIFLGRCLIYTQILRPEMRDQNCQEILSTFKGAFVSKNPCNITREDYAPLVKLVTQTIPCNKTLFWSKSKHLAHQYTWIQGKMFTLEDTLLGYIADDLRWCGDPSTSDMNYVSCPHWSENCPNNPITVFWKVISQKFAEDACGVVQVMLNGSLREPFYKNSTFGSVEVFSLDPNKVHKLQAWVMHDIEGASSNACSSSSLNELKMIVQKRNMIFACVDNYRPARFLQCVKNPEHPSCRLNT
Data was analysed by subtracting the values detected at t=0 from t=6 to correct for variation in baseline fluorescence, and fluorescence values were converted to percent inhibition using the average of high signal (CD38 and ε-NAD) and low signal (CD38 and ε-NAD in the presence of a tool CD38 inhibitor) control wells. IC50 values were determined from a 10-point, half log concentration response curve with a four-parameter logistic equation.

Setting [6] is: brain, read-out: total brain conc.
Where [7] appears, read: brain, total corrected for unbound fraction in brain, read-out: free brain conc.
Where [8] appears, read: plasma, read-out: total plasma conc.
Where [9] appears, read: plasma, total corrected for unbound fraction in plasma, read-out: free plasma conc.

For `Cc1cc(C(=O)N[C@H]2CC[C@H](OC(F)F)CC2)nc(-n2ccnc2)n1` [Example 17, N-((1r,4r)-4-(difluoromethoxy)cyclohexyl)-2-(1H-imidazol-1-yl)-6-methyl-pyrimidine-4-carboxamide, reference compound], in data set [1], the “Mouse brain (% unbound)” value amounted to 13.6 % unbound. Moreover, the “Mouse plasma (% unbound)” value in data set [2] is listed as 6.9 % unbound. For the same compound, the concentration at 2 h in data set [3] (setting [6]) turned out to be 77 nM; in data set [3] (setting [7]), 10 nM; in data set [3] (setting [8]) it was 1680 nM; in data set [3] (setting [9]) it was 115 nM. Moreover, the Kpu,u (unbound brain/plasma partition coefficient) at 2 h in data set [3] is 0.08.

As to `Cc1cc(C(=O)N[C@H]2CC[C@](C)(O)CC2)nc(-n2ccnc2)n1` [Example 18, N-((1r,4r)-4-hydroxy-4-methylcyclohexyl)-2-(1H-imidazol-1-yl)-6-methyl-pyrimidine-4-carboxamide, reference compound], the “Mouse brain (% unbound)” value in data set [1] worked out at 28.4 % unbound. Also, in data set [2], the “Mouse plasma (% unbound)” value was 25.3 % unbound. The concentration at 2 h amounted to 430 nM in data set [3] (setting [6]), 122 nM in data set [3] (setting [7]), 13000 nM in data set [3] (setting [8]) and 3290 nM in data set [3] (setting [9]). For the same compound, in data set [3], the Kpu,u (unbound brain/plasma partition coefficient) at 2 h is 0.03.

In general, IC50 refers to the concentration needed to halve the response being measured. In the case of `Cc1cc(C(=O)N[C@H]2CC[C@H](CNCC(F)(F)F)CC2)nc(-n2ccnc2)n1` [Example 25, 2-(1H-imidazol-1-yl)-6-methyl-N-((1r,4r)-4-(((2,2,2-trifluoroethyl)amino)methyl)cyclohexyl)pyrimidine-4-carboxamide], the IC50 in data set [4] and in data set [5] was not above 40 nM throughout.

`Cc1cc(C(=O)N[C@H]2CC[C@H](C(=O)NCC(F)(F)F)CC2)nc(-n2ccnc2)n1` [Example 26, 2-(1H-imidazol-1-yl)-6-methyl-N-((1r,4r)-4-((2,2,2-trifluoroethyl)carbamoyl)cyclohexyl)pyrimidine-4-carboxamide]: the 50% inhibitory concentration (IC50) in data set [4] and in data set [5] was not above 40 nM each time.

As to `Cc1cc(C(=O)N[C@H]2CC[C@H](N)CC2)nc(-n2ccnc2)n1` [Example 27, N-((1r,4r)-4-aminocyclohexyl)-2-(1H-imidazol-1-yl)-6-methyl-pyrimidine-4-carboxamide Formate], the IC50 in data set [4] is not above 1000 nM; in data set [5] it was not above 40 nM.
